# Reference: patent publication US10519177B2, “Heterocyclic compounds and uses thereof” (Plexxikon Inc., priority 2013, dated 2019)
# Target: BRD4-BD1 (44-164) (Homo sapiens (Human), UniProt O60885)
# Assay: Alphascreen binding assay BRD4-BD1
# Conditions: BRD4(1) H4; read-out: Biochemical activity (IC50 μM) BRD4(1) H4
# Procedure: Binding of compounds of formula (I) with bromodomain 2, 3 4 was assessed using Alphascreen binding assay. The inhibition of the interaction between bromodomain and its acetylated target protein (Filippakopoulos P et al. 2012) was measured quantitatively using recombinant BRD proteins, an acetylated Histone 4 peptide and AlphaScreen™ technology. In absence of inhibition the BRD protein bound to AlphaScreen™ nickel chelate acceptor beads can interact with the acetylated Histone 4 peptide which is immobilized by the AlphaScreen™ Streptavidin coated beads. This interaction brings donor and acceptor beads in proximity. The close proximity allows the singlet oxygen produced by laser excitation of the donor beads to reach the acceptor beads and generate a luminescence signal.
# Recombinant human bromodomains containing the N-terminal bromodomain (BRD2-BD1 (71-194), BRD3-BD1 (24-144) and BRD4-BD1 (44-164)) or dual bromodomains (BRD4-BD12 (1-477), BRD4-BD12 (1-472)) were prepared and purified as described in protein expression and purification session. The peptide is human Histone H41-21K5AcK8AcK12AcK16Ac-Biotin (Anaspec CA, USA).
# Protocol for BRD2, BRD3 and BRD4 assay: All components are prepared in buffer composed of 50 mM HEPES pH 7.5, 100 mM NaCl, 0.01% bovine serum albumin (“BSA”), 0.01% Triton X-100, 2 mM dithiothreitol (“DTT”). 7 μL of Bromodomain protein and 7 μL of peptide are added to wells containing 1 μL of various concentrations of test compounds of formula (I) or DMSO vehicle in an Alphaplate (PerkinElmer GA, USA) and incubated for 1 hour at room temperature. 4 μL donor and acceptor bead mixture is then added with final concentrations of 7.5 μg/ml. 30 minutes after bead addition, Alpha signal is read on the Envision spectrometer (λEx 680 nm, λEm 520-620 nm). Final concentrations of bromodomain proteins and peptide are as shown below.
# All data was normalized to the mean of 16 high and 16 low control wells on each plate. A four parameter curve fit of the following formula was then applied: Y=a+(b−a)/(1+(x/c)^d) Where ‘a’ is the minimum, ‘b’ is the maximum, ‘c’ is the pIC50 and ‘d’ is the Hill slope. Protein Expression and Purification
# Recombinant human bromodomains containing the N-terminal bromodomain (BRD2-BD1 (71-194), BRD3-BD1 (24-144) and BRD4-BD1 (44-164)) or dual bromodomains (BRD4-BD12 (1-477), BRD4-BD12 (1-472)) were expressed in E. coli cells (in a modified pET vector) with an N-terminal six-His tag and purified using a combination of both IMAC (Ni-affinity) and size exclusion chromatography steps.
# Recombinant BRD proteins were expressed using the E. coli strain BL21-CodonPlus (DE3) (Agilent Technologies CA, USA). Cells were grown in Terrific Broth (TB) media to an OD600 of 1.2 at 37° C. at which temperature was reduced to 25° C., protein was induced with 1.0 mM ispropyl-β-D-thiogalactopyranoside (“IPTG”) for 12-18 hours and harvested by centrifugation at 8000×g for 20 minutes. Cells were re-suspended in 0.1M K2PO4 pH 8.0, 250 mM NaCl, 10% Glycerol, 0.75% NP-40, 25 mM Imidazole, 5 mM beta-mercaptoethanol (“BME”) with 0.2 mg/ml Lysosyme, 2.0 mM phenylmethanesulfonyl fluoride (“PMSF”), 25 μg/ml DNAse I, incubated on ice for 30 minutes and lyzed with a cell disruptor (MicroFluidics MA, USA). The lysate was clarified by centrifugation at 20,000×g for 2 hours. The protein was captured with Ni-NTA resin (Life Technologies, USA). Contaminating proteins were washed off with 25 mM Tris-HCl pH 8.3, 250 mM NaCl, 12% Glycerol and 50 mM Imidazole. Following 3× wash steps, protein was eluted step wise using a 50 mM HEPES pH 7.5, 500 mM NaCl and 400 mM Imidazole. The protein was further purified using Gel Filtration column 26/600 Superdex 200 (GE Biosciences NJ, USA) in 50 mM HEPES pH 7.5, 250 mM NaCl. The protein was aliquoted and flash-frozen in liquid Nitrogen.
row,Compound,IC50
1,"Cc1noc(C)c1-c1cnc2c(-c3cnn(C(F)F)c3)cn(S(=O)(=O)CCC(F)(F)F)c2c1 [P-0136, 4-[3-[1-(difluoro-methyl)pyrazol-4-yl]-1-(3,3,3-trifluoro-propylsulfonyl)pyrrolo[3,2-b]pyridin-6-yl]-3,5-dimethyl-isoxazole]",< 1 µM
2,"Cc1noc(C)c1-c1cnc2[nH]cc(C(=O)C3CCC(F)(F)CC3)c2c1 [P-0031, (4,4-difluorocyclohexyl)-[5-(3,5-dimethylisoxazol-4-yl)-1H-pyrrolo[2,3-b]pyridin-3-yl]methanone]",< 1 µM
3,"Cc1noc(C)c1-c1cnc2[nH]cc(S(=O)(=O)c3ccccc3)c2c1 [P-0145, 4-[3-(benzenesulfonyl)-1H-pyrrolo[2,3-b]pyridin-5-yl]-3,5-dimethyl-isoxazole]",< 1 µM
4,"Cc1noc(C)c1-c1cnc2[nH]cc(C(O)c3c(F)cccc3Cl)c2c1 (stereo not drawn) [P-0021, (2-chloro-6-fluoro-phenyl)-[5-(3,5-dimethylisoxazol-4-yl)-1H-pyrrolo[2,3-b]pyridin-3-yl]methanol]",< 1 µM
5,"CCc1[nH]c2ncc(-c3c(C)noc3C)cc2c1C(OC)C1CCC(F)(F)CC1 (stereo not drawn) [P-0045, 4-[3-[(4,4-difluorocyclohexyl)-methoxy-methyl]-2-ethyl-1H-pyrrolo[2,3-b]pyridin-5-yl]-3,5-dimethyl-isoxazole]",< 1 µM
6,"C=CCn1cc(-c2cn(Cc3ccccc3)c3cc(-c4c(C)noc4C)cnc23)cn1 [P-0160, 4-[3-(1-allylpyrazol-4-yl)-1-benzyl-pyrrolo[3,2-b]pyridin-6-yl]-3,5-dimethyl-isoxazole]",< 1 µM
7,"Cc1noc(C)c1-c1cnc2ccn(S(=O)(=O)C3CCCC3)c2c1 [P-0037, 4-(1-cyclopentyl-sulfonylpyrrolo[3,2-b]pyridin-6-yl)-3,5-dimethyl-isoxazole]",< 1 µM
8,"COc1ncc(F)cc1C(O)c1c[nH]c2ncc(-c3c(C)noc3C)cc12 (stereo not drawn) [P-0022, [5-(3,5-dimethylisoxazol-4-yl)-1H-pyrrolo[2,3-b]pyridin-3-yl]-(5-fluoro-2-methoxy-3-pyridyl)methanol]",< 1 µM
9,"Cc1noc(C)c1-c1cnc2c(-c3cnn(C4CCOC4)c3)cn(C(C)c3ccccc3)c2c1 (stereo not drawn) [P-0204, 3,5-dimethyl-4-[1-(1-phenyl-ethyl)-3-(1-tetrahydrofuran-3-ylpyrazol-4-yl)pyrrolo[3,2-b]pyridin-6-yl]isoxazole]",< 1 µM
10,"Cc1noc(C)c1-c1cnc2c(-c3cc(C(F)(F)F)n[nH]3)cn(C(C)c3ccccc3)c2c1 (stereo not drawn) [P-0215, 3,5-dimethyl-4-[1-(1-phenylethyl)-3-[3-(trifluoromethyl)-1H-pyrazol-5-yl]pyrrolo[3,2-b]pyridin-6-yl]isoxazole]",< 1 µM
11,"Cc1noc(C)c1-c1cnc2c(-c3cnn(C)c3)cn(C(CO)c3ccccc3)c2c1 (stereo not drawn) [P-0192, 2-[6-(3,5-dimethylisoxazol-4-yl)-3-(1-methylpyrazol-4-yl)pyrrolo[3,2-b]pyridin-1-yl]-2-phenyl-ethanol]",< 1 µM
12,"C=CCn1cc(-c2cn(S(=O)(=O)C3CC3)c3cc(-c4c(C)noc4C)cnc23)cn1 [P-0139, 4-[3-(1-allylpyrazol-4-yl)-1-cyclopropyl-sulfonyl-pyrrolo[3,2-b]pyridin-6-yl]-3,5-dimethyl-isoxazole]",< 1 µM
13,"CCCS(=O)(=O)n1cc(-c2cnn(C3CCOC3)c2)c2ncc(-c3c(C)noc3C)cc21 (stereo not drawn) [P-0154, 3,5-dimethyl-4-[1-propylsulfonyl-3-(1-tetrahydrofuran-3-ylpyrazol-4-yl)pyrrolo[3,2-b]pyridin-6-yl]isoxazole]",< 1 µM
14,"Cc1noc(C)c1-c1cnc2c(-c3cnn(C)c3)cn(S(=O)(=O)c3cccc(F)c3)c2c1 [P-0122, 4-[1-(3-fluorophenyl)sulfonyl-3-(1-methyl-pyrazol-4-yl)pyrrolo[3,2-b]pyridin-6-yl]-3,5-dimethyl-isoxazole]",< 1 µM
15,"COc1ncc(F)cc1Cc1c[nH]c2ncc(-c3c(C)noc3C)cc12 [P-0028, 4-[3-[(5-fluoro-2-methoxy-3-pyridyl)methyl)-1H-pyrrolo[2,3-b]pyridin-5-yl]-3,5-dimethyl-isoxazole]",< 1 µM
16,"Cc1noc(C)c1-c1cnc2[nH]cc(S(=O)(=O)c3cccc(F)c3)c2c1 [P-0143, 4-[3-(3-fluorophenyl)sulfonyl-1H-pyrrolo[2,3-b]pyridin-5-yl]-3,5-dimethyl-isoxazole]",< 1 µM
17,"Cc1noc(C)c1-c1cnc2c(-c3cnn(C4CCOC4)c3)cn(S(=O)(=O)c3ccccc3)c2c1 (stereo not drawn) [P-0148, 4-[1-(benzenesulfonyl)-3-(1-tetrahydrofuran-3-ylpyrazol-4-yl)pyrrolo[3,2-b]pyridin-6-yl]-3,5-dimethyl-isoxazole]",< 1 µM
18,"Cc1noc(C)c1-c1cnc2c(-c3cnn(C)c3)cn(CC3CCC(F)(F)CC3)c2c1 [P-0209, 4-[1-[(4,4-difluorocyclohexyl)methyl]-3-(1-methylpyrazol-4-yl)pyrrolo[3,2-b]pyridin-6-yl]-3,5-dimethyl-isoxazole]",< 1 µM
19,"Cc1noc(C)c1-c1cnc2[nH]cc(C(C)(C)c3ccc(F)cc3)c2c1 [P-0063, 4-[3-[1-(4-fluorophenyl)-1-methyl-ethyl]-1H-pyrrolo[2,3-b]pyridin-5-yl]-3,5-dimethyl-isoxazole]",< 1 µM
20,"C=CCn1cc(-c2cn(S(=O)(=O)CCC(F)(F)F)c3cc(-c4c(C)noc4C)cnc23)cn1 [P-0129, 4-[3-(1-allylpyrazol-4-yl)-1-(3,3,3-trifluoro-propylsulfonyl)pyrrolo[3,2-b]pyridin-6-yl]-3,5-dimethyl-isoxazole]",< 1 µM
21,"Cc1noc(C)c1-c1cnc2c(-c3ccccc3)cn(S(=O)(=O)c3ccccc3)c2c1 [P-0077, 4-[1-(benzenesulfonyl)-3-phenyl-pyrrolo[3,2-b]pyridin-6-yl]-3,5-dimethyl-isoxazole]",< 1 µM
22,"CCCCS(=O)(=O)n1ccc2ncc(-c3c(C)noc3C)cc21 [P-0036, 4-(1-butylsulfonylpyrrolo[3,2-b]pyridin-6-yl)-3,5-dimethyl-isoxazole]",< 1 µM
23,"C=CCn1cc(-c2cn(S(=O)(=O)CC3CC3)c3cc(-c4c(C)noc4C)cnc23)cn1 [P-0140, 4-[3-(1-allylpyrazol-4-yl)-1-(cyclopropyl-methylsulfonyl)pyrrolo[3,2-b]pyridin-6-yl]-3,5-dimethyl-isoxazole]",< 1 µM
24,"Cc1nn(C)cc1-c1cn(C(C)c2ccccc2)c2cc(-c3c(C)noc3C)cnc12 (stereo not drawn) [P-0205, 4-[3-(1,3-dimethylpyrazol-4-yl)-1-(1-phenylethyl)pyrrolo[3,2-b]pyridin-6-yl]-3,5-dimethyl-isoxazole]",< 1 µM
25,"Cc1noc(C)c1-c1cnc2c(c1)c(CC1CCN(C(=O)C(F)(F)F)CC1)cn2C [P-0106, 1-[4-[[5-(3,5-dimethylisoxazol-4-yl)-1-methyl-pyrrolo[2,3-b]pyridin-3-yl]methyl]-1-piperidyl]-2,2,2-trifluoro-ethanone]",< 1 µM
26,"COC(c1cn(S(=O)(=O)C2CCCCC2)c2cc(-c3c(C)noc3C)cnc12)C1CC1 (stereo not drawn) [P-0071, 4-[1-cyclohexyl-sulfonyl-3-[cyclopropyl(methoxy)methyl]pyrrolo[3,2-b]pyridin-6-yl]-3,5-dimethyl-isoxazole]",< 1 µM
27,"Cc1noc(C)c1-c1cnc2c(-c3cnn(C)c3)cn(Cc3c(Cl)cccc3Cl)c2c1 [P-0189, 4-[1-[(2,6-dichlorophenyl)methyl]-3-(1-methylpyrazol-4-yl)pyrrolo[3,2-b]pyridin-6-yl]-3,5-dimethyl-isoxazole]",< 1 µM
